Measurements published in the OligoGym collection.
Oligonucleotides are written 5' to 3', each unit as a sugar letter and its base; * is a phosphorothioate linkage, no mark a phosphodiester; rarer units and linkages stand in square brackets, end groups in braces. Plain capitals give the bases only. d = 2'-deoxy (DNA); r = 2'-OH (RNA)
Also: test concentration or dose not given here.

Each substance was assayed against DENND5A (assay: reporter assay of Huesken 2005). Conditions: siRNA.
In the case of “sense rArArArUrCrArGrCrCrUrUrArUrGrGrUrCrCrCdTdT / antisense rGrGrGrArCrCrArUrArArGrGrCrUrGrArUrUrUdCdC”, the normalised inhibition (eCFP-eYFP dual reporter) is reported as 41.9%.

These substances were tested against MRFAP1 (assay: reporter assay of Huesken 2005). Conditions: siRNA.
With “sense rUrArCrArCrGrGrCrUrArGrGrArCrUrGrArUrGdTdT / antisense rCrArUrCrArGrUrCrCrUrArGrCrCrGrUrGrUrAdAdG” the normalised inhibition (eCFP-eYFP dual reporter) was 61.8%. Substance “sense rUrArCrGrUrUrUrCrUrGrCrUrArUrGrGrUrCrUdTdT / antisense rArGrArCrCrArUrArGrCrArGrArArArCrGrUrAdGdT” has a normalised inhibition (eCFP-eYFP dual reporter) of 62.7%. For “sense rUrArGrArArGrArGrGrArCrUrCrCrArUrGrCrAdTdT / antisense rUrGrCrArUrGrGrArGrUrCrCrUrCrUrUrCrUrAdGdA”, the normalised inhibition (eCFP-eYFP dual reporter) was 68.6%. Work on “sense rUrArGrGrArCrUrGrArUrGrArCrCrUrGrGrGrAdTdT / antisense rUrCrCrCrArGrGrUrCrArUrCrArGrUrCrCrUrAdGdC” yielded a normalised inhibition (eCFP-eYFP dual reporter) of 70.4%. “sense rUrArUrCrCrCrCrArUrArUrArUrUrUrGrArGrGdTdT / antisense rCrCrUrCrArArArUrArUrArUrGrGrGrGrArUrAdCdC” was tested, and the normalised inhibition (eCFP-eYFP dual reporter) was 48.6%. In the case of “sense rUrCrArCrCrGrCrCrUrCrUrGrArArArGrUrUrCdTdT / antisense rGrArArCrUrUrUrCrArGrArGrGrCrGrGrUrGrAdGdC”, the normalised inhibition (eCFP-eYFP dual reporter) is reported as 45.5%. Work on “sense rUrCrArUrUrCrCrUrGrGrCrUrUrUrGrGrUrGrUdTdT / antisense rArCrArCrCrArArArGrCrCrArGrGrArArUrGrAdAdC” yielded a normalised inhibition (eCFP-eYFP dual reporter) of 52.6%. “sense rUrCrCrArGrArUrCrArArGrArCrGrCrArGrGrUdTdT / antisense rArCrCrUrGrCrGrUrCrUrUrGrArUrCrUrGrGrAdTdC” gave a normalised inhibition (eCFP-eYFP dual reporter) of 54.6%. For “sense rUrCrCrCrUrGrArArCrUrUrUrGrGrGrUrCrCrCdTdT / antisense rGrGrGrArCrCrCrArArArGrUrUrCrArGrGrGrAdGdC”, the normalised inhibition (eCFP-eYFP dual reporter) was 53.3%. With “sense rUrCrCrUrGrGrCrUrUrUrGrGrUrGrUrGrUrUrCdTdT / antisense rGrArArCrArCrArCrCrArArArGrCrCrArGrGrAdAdT” the normalised inhibition (eCFP-eYFP dual reporter) was 66.9%. “sense rUrCrGrCrUrGrArCrGrCrGrCrGrArGrCrGrCrGdTdT / antisense rCrGrCrGrCrUrCrGrCrGrCrGrUrCrArGrCrGrAdCdG” gave a normalised inhibition (eCFP-eYFP dual reporter) of 14%. For “sense rUrCrGrGrArGrGrArUrUrGrUrArUrUrGrUrUrUdTdT / antisense rArArArCrArArUrArCrArArUrCrCrUrCrCrGrAdCdC”, the normalised inhibition (eCFP-eYFP dual reporter) was 54.7%. In the case of “sense rUrCrGrUrGrCrArGrArCrArArGrCrArArArGrCdTdT / antisense rGrCrUrUrUrGrCrUrUrGrUrCrUrGrCrArCrGrAdCdA”, the normalised inhibition (eCFP-eYFP dual reporter) is reported as 67.6%. In the case of “sense rUrCrGrUrGrCrGrGrCrGrGrArUrArGrArGrArAdTdT / antisense rUrUrCrUrCrUrArUrCrCrGrCrCrGrCrArCrGrAdGdC”, the normalised inhibition (eCFP-eYFP dual reporter) is reported as 87.2%. Work on “sense rUrCrUrGrCrUrGrCrCrCrGrUrCrArUrCrCrArCdTdT / antisense rGrUrGrGrArUrGrArCrGrGrGrCrArGrCrArGrAdAdA” yielded a normalised inhibition (eCFP-eYFP dual reporter) of 35.3%. “sense rUrCrUrGrGrUrUrGrArGrUrGrArUrGrGrCrGrAdTdT / antisense rUrCrGrCrCrArUrCrArCrUrCrArArCrCrArGrAdAdT” was tested, and the normalised inhibition (eCFP-eYFP dual reporter) was 75.7%. “sense rUrCrUrUrCrGrUrGrArGrCrCrGrUrCrCrGrCrGdTdT / antisense rCrGrCrGrGrArCrGrGrCrUrCrArCrGrArArGrAdCdT” gave a normalised inhibition (eCFP-eYFP dual reporter) of 35.4%. “sense rUrCrUrUrGrGrGrUrGrArCrCrUrGrArUrArGrCdTdT / antisense rGrCrUrArUrCrArGrGrUrCrArCrCrCrArArGrAdAdA” was tested, and the normalised inhibition (eCFP-eYFP dual reporter) was 45.6%. “sense rUrCrUrUrUrUrCrCrCrCrUrCrUrGrUrCrUrUrCdTdT / antisense rGrArArGrArCrArGrArGrGrGrGrArArArArGrAdAdA” was tested, and the normalised inhibition (eCFP-eYFP dual reporter) was 35.3%. With “sense rUrGrArUrGrArCrCrUrGrGrGrArGrArArGrGrGdTdT / antisense rCrCrCrUrUrCrUrCrCrCrArGrGrUrCrArUrCrAdGdT” the normalised inhibition (eCFP-eYFP dual reporter) was 33.2%. In the case of “sense rUrGrCrArGrCrArArUrGrGrCrArGrArArGrArAdTdT / antisense rUrUrCrUrUrCrUrGrCrCrArUrUrGrCrUrGrCrAdTdG”, the normalised inhibition (eCFP-eYFP dual reporter) is reported as 72.9%. “sense rUrGrCrArGrCrUrCrGrUrGrCrGrGrCrGrGrArUdTdT / antisense rArUrCrCrGrCrCrGrCrArCrGrArGrCrUrGrCrAdCdC” gave a normalised inhibition (eCFP-eYFP dual reporter) of 33.7%. In the case of “sense rUrGrGrArCrArArUrArUrGrCrUrGrArUrCrCrAdTdT / antisense rUrGrGrArUrCrArGrCrArUrArUrUrGrUrCrCrAdTdC”, the normalised inhibition (eCFP-eYFP dual reporter) is reported as 91.5%. “sense rUrGrGrArGrGrUrGrCrUrGrGrArGrCrCrGrGrAdTdT / antisense rUrCrCrGrGrCrUrCrCrArGrCrArCrCrUrCrCrAdCdC” was tested, and the normalised inhibition (eCFP-eYFP dual reporter) was 69.1%. In the case of “sense rUrGrUrUrCrGrUrCrUrGrUrArCrArArGrUrUrGdTdT / antisense rCrArArCrUrUrGrUrArCrArGrArCrGrArArCrAdAdG”, the normalised inhibition (eCFP-eYFP dual reporter) is reported as 84.8%. Work on “sense rUrGrUrUrCrUrCrArCrUrGrArCrArCrUrArCrGdTdT / antisense rCrGrUrArGrUrGrUrCrArGrUrGrArGrArArCrAdGdA” yielded a normalised inhibition (eCFP-eYFP dual reporter) of 68.9%. “sense rUrGrUrUrGrGrGrArCrArGrCrCrUrArArCrUrCdTdT / antisense rGrArGrUrUrArGrGrCrUrGrUrCrCrCrArArCrAdAdA” gave a normalised inhibition (eCFP-eYFP dual reporter) of 85.6%. In the case of “sense rUrUrArCrCrArUrGrUrUrGrArArArArCrArArAdTdT / antisense rUrUrUrGrUrUrUrUrCrArArCrArUrGrGrUrArAdGdG”, the normalised inhibition (eCFP-eYFP dual reporter) is reported as 91.3%. Work on “sense rUrUrCrUrCrArCrUrGrArCrArCrUrArCrGrUrUdTdT / antisense rArArCrGrUrArGrUrGrUrCrArGrUrGrArGrArAdCdA” yielded a normalised inhibition (eCFP-eYFP dual reporter) of 72.2%. “sense rUrUrGrArUrUrUrGrGrArArArArUrGrCrGrCrUdTdT / antisense rArGrCrGrCrArUrUrUrUrCrCrArArArUrCrArAdAdG” was tested, and the normalised inhibition (eCFP-eYFP dual reporter) was 68.1%. With “sense rUrUrGrGrArArArArUrGrCrGrCrUrCrArCrArUdTdT / antisense rArUrGrUrGrArGrCrGrCrArUrUrUrUrCrCrArAdAdT” the normalised inhibition (eCFP-eYFP dual reporter) was 38.7%. Substance “sense rUrUrGrGrCrUrGrArCrArUrGrArCrArCrCrCrUdTdT / antisense rArGrGrGrUrGrUrCrArUrGrUrCrArGrCrCrArAdTdC” has a normalised inhibition (eCFP-eYFP dual reporter) of 65.4%. “sense rUrUrGrUrUrCrGrUrCrUrGrUrArCrArArGrUrUdTdT / antisense rArArCrUrUrGrUrArCrArGrArCrGrArArCrArAdGdA” was tested, and the normalised inhibition (eCFP-eYFP dual reporter) was 55.5%. In the case of “sense rUrUrUrGrArGrGrUrCrArArArArCrCrCrUrUrAdTdT / antisense rUrArArGrGrGrUrUrUrUrGrArCrCrUrCrArArAdTdG”, the normalised inhibition (eCFP-eYFP dual reporter) is reported as 82.6%. “sense rUrUrUrGrGrArArArArUrGrCrGrCrUrCrArCrAdTdT / antisense rUrGrUrGrArGrCrGrCrArUrUrUrUrCrCrArArAdTdC” showed a normalised inhibition (eCFP-eYFP dual reporter) of 47.6%. With “sense rUrUrUrGrGrGrUrCrCrCrUrGrUrGrArCrArCrUdTdT / antisense rArGrUrGrUrCrArCrArGrGrGrArCrCrCrArArAdGdT” the normalised inhibition (eCFP-eYFP dual reporter) was 50.8%.
